This is an account of results in patent US20190015327A1, “COMPOSITIONS AND METHODS FOR TREATING CONDITIONS RELATED TO LACK OF BLOOD SUPPLY, SHOCK AND NEURONAL INJURIES” (VIVACELLE BIO, INC., priority 2015, published 2019).

Data set [1] in a line: Nitric oxide uptake / NO content by mass spectrometry. The settings on record: 100 ppm nitric oxide in helium, 60 min equilibration.
Protocol: Some samples (1 ml each) were left open to air in 2.0 ml tubes for 30 minutes prior to dissolved gas analysis. In other experiments the emulsion was placed into a 15 ml tube. The headspace was filled with the gas under study and the gas was allowed to enter the emulsion by equilibration over 60 minutes with the tube on its side to increase the gas emulsion interaction. 50 μL drawn from each of these fluids were injected into a Sievers purge vessel at 37° C. containing 36 ml of a mildly acidic solution consisting of 32 ml of 1M HCL and 4 ml of 0.5M ascorbic acid. […] Signals generated at m/z=32 upon injection of RL and lipid emulsion samples were integrated using Peakfit and compared to those obtained with distilled water.
In another set of experiments we measured the uptake of nitric oxide by a commercially available 20% soybean oil emulsion, Liposyn III 20%. This emulsion contains 20% soybean oil, 1.2% egg phospholipids and 2.5% glycerin in water. Using NaOH pH was adjusted to 8.3. […] 100 ppm nitric oxide in helium was used to purge the hesdspace for two minutes taking care not to bubble the fluid. For sixty minutes the sample was allowed to reach gas-liquid equilibrium with the tube placed on its side to maximize gas-emulsion contact.
The uptake of NO and O2 by a commercial 20% soybean oil emulsion, Liposyn, was measured using mass spectrometry. […] To approximate field conditions, no warming or respiratory support was provided. Next, 55% of blood volume was removed within 2 minutes. […] The time of clinical death was defined as the cessation of respiration. […] In 5 mice a volume of Ringer's lactate equal to the volume of blood removed was administered via the internal jugular vein over 2 minutes immediately after the loss of chest wall movement. […] In 6 mice a volume of Ringer's lactate equal to the volume of blood removed was administered via the carotid artery over 2 minutes. […] In the next set of experiments, infusing Ringers' lactate was delayed for 3 minutes. […] A volume of emulsion equal to the volume of blood that had been removed was infused.
The conditions of data set [2]: 1 atm; from The Engineering Toolbox; cited from earlier work.
The conditions of data set [3]: published value; cited from earlier work.

Where “and” joins values, the source holds several entries; their conditions need not be identical. Identical values can stand only once.

For the compound `O` [Water], in data set [1], the “NO Content, Mean” value was 1.77 mol/L; the “NO Content, single samples” value was 2.29 mol/L and 1.52 mol/L and 1.63 mol/L and 1.72 mol/L and 1.69 mol/L. For the same compound, the “Oxygen Content at 25° C. and Sea level Pressure” value in data set [2] is given as 8.3 mg/L.
Turning to hemoglobin, the oxygen release time in data set [3] was 17.5 ms.
